Assay results: ChEMBL document CHEMBL1140258, “Synthesis and structure-activity relationships of biarylcarboxamide bis-aminopyrrolidine urea derived small-molecule antagonists of the melanin-concentrating hormone receptor-1 (MCH-R1)” (Bioorg Med Chem Lett, 2005)

The compounds below were run against Melanin-concentrating hormone receptor 1 (Homo sapiens, UniProt Q99705) (assay: biochemical).
Chain of Melanin-concentrating hormone receptor 1 (Q99705 whole entry): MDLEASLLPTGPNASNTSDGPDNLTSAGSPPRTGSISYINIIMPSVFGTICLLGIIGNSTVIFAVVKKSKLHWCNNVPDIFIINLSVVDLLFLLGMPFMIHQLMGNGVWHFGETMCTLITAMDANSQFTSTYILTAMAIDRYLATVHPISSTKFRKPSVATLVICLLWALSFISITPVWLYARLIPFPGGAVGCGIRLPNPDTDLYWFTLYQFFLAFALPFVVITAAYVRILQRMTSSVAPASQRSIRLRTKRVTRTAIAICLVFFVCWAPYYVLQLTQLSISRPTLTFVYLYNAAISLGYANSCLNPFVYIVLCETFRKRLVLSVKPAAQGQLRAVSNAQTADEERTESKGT
Format: cell-based, HEK293
Description: Binding affinity towards the human MCH-R1 receptor by displacing [125I]Tyr13]-MCH radioligand in HEK293 cells, Data is average of 3 or more independent measurements
For CN1CC[C@@H](N(C)C(=O)N2CC[C@H](N(C)C(=O)c3ccc(-c4ccc(F)cc4)s3)C2)C1, the Ki was 37 nM.
Compound Cc1ccc(-c2ccc(C(=O)N(C)[C@H]3CCN(C(=O)N(C)[C@@H]4CCN(C)C4)C3)s2)c(Cl)c1 has a Ki of 1 nM.
COc1ccc(-c2ccc(C(=O)N(C)[C@H]3CCN(C(=O)N(C)[C@@H]4CCN(C)C4)C3)cc2)cc1 gave a Ki of 5 nM.
Work on CN1CC[C@@H](N(C)C(=O)N2CC[C@H](N(C)C(=O)c3ccc(-c4cccc(C(F)(F)F)c4)s3)C2)C1 yielded a Ki of 1800 nM.
With CN1CC[C@H](N(C)C(=O)N2CC[C@H](N(C)C(=O)c3ccc(-c4ccc(C(F)(F)F)cc4)s3)C2)C1 the Ki was 14 nM.
COc1cccc(-c2ccc(C(=O)N(C)[C@H]3CCN(C(=O)N(C)[C@@H]4CCN(C)C4)C3)s2)c1 gave a Ki of 900 nM.
CN1CC[C@@H](N(C)C(=O)N2CC[C@H](N(C)C(=O)c3ccc(-c4ccc(OC(F)(F)F)cc4)s3)C2)C1 was tested, and the Ki was 4 nM.
Compound CN1CC[C@@H](N(C)C(=O)N2CC[C@H](N(C)C(=O)c3ccc(-c4ccc(Cl)cc4)s3)C2)C1 has a Ki of 2 nM.
With CN1CC[C@@H](N(C)C(=O)N2CC[C@H](N(C)C(=O)c3ccc(-c4ccc(N(C)C)cc4)s3)C2)C1 the Ki was 7 nM.
Compound CN1CC[C@@H](N(C)C(=O)N2CC[C@H](N(C)C(=O)c3ccc(-c4ccccc4C(F)(F)F)s3)C2)C1 has a Ki of 61 nM.
Work on COc1ccc(-c2ccc(C(=O)N(C)[C@H]3CCN(C(=O)N(C)[C@@H]4CCN(C)C4)C3)s2)c(C)c1 yielded a Ki of 3 nM.
CCOc1ccc(-c2ccc(C(=O)N(C)[C@H]3CCN(C(=O)N(C)[C@@H]4CCN(C)C4)C3)s2)cc1 was tested, and the Ki was 63 nM.
Work on CN1CC[C@@H](N(C)C(=O)N2CC[C@@H](N(C)C(=O)c3ccc(-c4ccc(C(F)(F)F)cc4)s3)C2)C1 yielded a Ki of 150 nM.
For CN1CC[C@@H](N(C)C(=O)N2CC[C@H](N(C)C(=O)c3ccc(-c4ccccc4Cl)s3)C2)C1, the Ki was 10 nM.
With CN1CC[C@@H](N(C)C(=O)N2CC[C@H](N(C)C(=O)c3ccc(-c4ccc(Cl)cc4Cl)s3)C2)C1 the Ki was 3 nM.
CN1CC[C@@H](N(C)C(=O)N2CC[C@H](N(C)C(=O)c3ccc(-c4ccc(C#N)cc4)s3)C2)C1 was tested, and the Ki was 2400 nM.
With CN1CC[C@H](N(C)C(=O)N2CC[C@@H](N(C)C(=O)c3ccc(-c4ccc(C(F)(F)F)cc4)s3)C2)C1 the Ki was 190 nM.
Work on CCc1ccc(-c2ccc(C(=O)N(C)[C@H]3CCN(C(=O)N(C)[C@@H]4CCN(C)C4)C3)s2)cc1 yielded a Ki of 1 nM.
Cc1ccc(-c2ccc(C(=O)N(C)[C@H]3CCN(C(=O)N(C)[C@@H]4CCN(C)C4)C3)s2)c(C)c1 was tested, and the Ki was 3 nM.
In the case of CN1CC[C@@H](N(C)C(=O)N2CC[C@H](N(C)C(=O)c3ccc(-c4ccc(O)cc4)s3)C2)C1, the Ki is reported as > 10000 nM.
With CN1CC[C@@H](N(C)C(=O)N2CC[C@H](N(C)C(=O)c3ccc(-c4cccc(Cl)c4)s3)C2)C1 the Ki was 320 nM.
CN1CC[C@@H](N(C)C(=O)N2CC[C@H](N(C)C(=O)c3ccc(-c4ccc(S(C)(=O)=O)cc4)s3)C2)C1 gave a Ki of 6000 nM.
Work on Cc1cccc(C)c1-c1ccc(C(=O)N(C)[C@H]2CCN(C(=O)N(C)[C@@H]3CCN(C)C3)C2)s1 yielded a Ki of 310 nM.
In the case of COc1ccccc1-c1ccc(C(=O)N(C)[C@H]2CCN(C(=O)N(C)[C@@H]3CCN(C)C3)C2)s1, the Ki is reported as 3400 nM.
For CC(C)c1ccc(-c2ccc(C(=O)N(C)[C@H]3CCN(C(=O)N(C)[C@@H]4CCN(C)C4)C3)s2)cc1, the Ki was 5 nM.
For COc1ccc(-c2ccc(C(=O)N(C)[C@H]3CCN(C(=O)N(C)[C@@H]4CCN(C)C4)C3)cc2)c(C)c1, the Ki was 16 nM.
Compound Cc1ccccc1-c1ccc(C(=O)N(C)[C@H]2CCN(C(=O)N(C)[C@@H]3CCN(C)C3)C2)s1 has a Ki of 19 nM.
With Cc1cc(Cl)ccc1-c1ccc(C(=O)N(C)[C@H]2CCN(C(=O)N(C)[C@@H]3CCN(C)C3)C2)s1 the Ki was 3 nM.
In the case of Cc1ccc(-c2ccc(C(=O)N(C)[C@H]3CCN(C(=O)N(C)[C@@H]4CCN(C)C4)C3)s2)cc1, the Ki is reported as 3 nM.
In the case of CN1CC[C@@H](N(C)C(=O)N2CC[C@H](N(C)C(=O)c3ccc(-c4ccc(C(F)(F)F)cc4)s3)C2)C1, the Ki is reported as 2 nM.
Work on CC(C)Oc1ccc(-c2ccc(C(=O)N(C)[C@H]3CCN(C(=O)N(C)[C@@H]4CCN(C)C4)C3)s2)cc1 yielded a Ki of 3300 nM.
For COc1ccc(-c2ccc(C(=O)N(C)[C@H]3CCN(C(=O)N(C)[C@@H]4CCN(C)C4)C3)s2)cc1, the Ki was 4 nM.
CN1CC[C@@H](N(C)C(=O)N2CC[C@H](N(C)C(=O)c3ccc(-c4ccc(Cl)cc4)cc3)C2)C1 was tested, and the Ki was 2 nM.
Work on CCOc1ccc(-c2ccc(C(=O)N(C)[C@H]3CCN(C(=O)N(C)[C@@H]4CCN(C)C4)C3)s2)c(Cl)c1 yielded a Ki of 2 nM.
